# Target: T1, KDM5A (Homo sapiens, UniProt P29375)
# T1 construct: Full length KDM5A enzyme was expressed and purified inhouse; made in house
# Test: KDM5 enzyme assay, KDM5A HTRF (Example 463)
# Format: biochemical
# Settings: not given
# T1 sequence (P29375 whole entry): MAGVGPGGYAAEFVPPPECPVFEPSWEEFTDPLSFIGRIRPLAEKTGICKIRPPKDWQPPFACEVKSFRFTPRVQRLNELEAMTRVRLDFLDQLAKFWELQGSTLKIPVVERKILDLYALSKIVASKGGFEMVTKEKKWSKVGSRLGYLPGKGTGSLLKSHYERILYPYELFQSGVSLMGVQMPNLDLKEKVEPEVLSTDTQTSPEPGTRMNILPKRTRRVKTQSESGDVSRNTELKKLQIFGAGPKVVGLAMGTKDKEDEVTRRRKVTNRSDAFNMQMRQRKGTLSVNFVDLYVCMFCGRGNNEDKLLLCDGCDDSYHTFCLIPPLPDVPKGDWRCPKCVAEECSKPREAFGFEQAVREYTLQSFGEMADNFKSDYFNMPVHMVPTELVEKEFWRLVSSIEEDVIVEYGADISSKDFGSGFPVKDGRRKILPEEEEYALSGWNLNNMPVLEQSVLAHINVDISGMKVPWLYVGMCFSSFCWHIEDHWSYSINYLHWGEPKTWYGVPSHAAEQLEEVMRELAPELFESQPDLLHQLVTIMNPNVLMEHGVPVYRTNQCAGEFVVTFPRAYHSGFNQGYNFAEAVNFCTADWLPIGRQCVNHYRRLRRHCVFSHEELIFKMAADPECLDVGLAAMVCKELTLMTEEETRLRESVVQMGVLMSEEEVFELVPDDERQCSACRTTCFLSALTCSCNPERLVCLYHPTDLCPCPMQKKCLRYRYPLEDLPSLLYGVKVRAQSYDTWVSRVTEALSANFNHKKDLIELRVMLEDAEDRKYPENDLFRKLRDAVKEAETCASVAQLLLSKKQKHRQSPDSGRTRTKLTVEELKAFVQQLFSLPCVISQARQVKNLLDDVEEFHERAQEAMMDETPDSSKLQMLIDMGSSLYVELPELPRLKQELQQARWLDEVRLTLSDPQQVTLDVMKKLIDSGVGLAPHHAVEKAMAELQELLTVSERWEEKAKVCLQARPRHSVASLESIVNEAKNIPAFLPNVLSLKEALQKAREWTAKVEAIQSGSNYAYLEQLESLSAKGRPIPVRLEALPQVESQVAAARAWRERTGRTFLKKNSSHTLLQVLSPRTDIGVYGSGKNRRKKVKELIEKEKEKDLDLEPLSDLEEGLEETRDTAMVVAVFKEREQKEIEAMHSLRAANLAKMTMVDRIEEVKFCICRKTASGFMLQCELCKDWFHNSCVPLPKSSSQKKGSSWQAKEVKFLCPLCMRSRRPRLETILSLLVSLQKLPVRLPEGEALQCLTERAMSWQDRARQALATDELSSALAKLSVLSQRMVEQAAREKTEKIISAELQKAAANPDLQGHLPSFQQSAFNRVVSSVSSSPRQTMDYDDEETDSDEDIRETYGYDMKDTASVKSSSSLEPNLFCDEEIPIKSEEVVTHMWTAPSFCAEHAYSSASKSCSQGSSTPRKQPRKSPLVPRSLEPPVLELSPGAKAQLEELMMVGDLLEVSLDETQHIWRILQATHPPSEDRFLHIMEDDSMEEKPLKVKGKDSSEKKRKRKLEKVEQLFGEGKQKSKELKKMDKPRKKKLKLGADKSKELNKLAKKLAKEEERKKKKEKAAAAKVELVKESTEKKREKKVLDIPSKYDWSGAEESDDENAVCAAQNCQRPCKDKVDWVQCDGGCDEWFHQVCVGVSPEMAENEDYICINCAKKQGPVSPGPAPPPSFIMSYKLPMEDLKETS
row,SMILES,IC50 [nM]
1,CC(C)c1c(-c2ccc(OC(F)(F)F)cc2)[nH]c2c(C#N)cnn2c1=O [Example 257],37
2,COc1cc(-c2[nH]c3c(C#N)cnn3c(=O)c2C(C)C)ccn1 [Example 277],32

# Same assay, conditions: compounds of Examples 1-432; read-out: Example 463 Assay KDM5A HTRF IC50
row,SMILES,IC50 [nM]
1,CC(C)c1c(-c2cnn(C3CCOCC3)c2)[nH]c2c(C#N)cnn2c1=O [Example 254],33
2,COc1cc(-c2[nH]c3c(C#N)cnn3c(=O)c2C(C)C)ccc1C(F)(F)F [Example 255],35
3,Cc1cc(-c2[nH]c3c(C#N)cnn3c(=O)c2C(C)C)ccc1OC(F)(F)F [Example 258],44
4,CC(C)c1c(-c2ccc(C3CC3)c(C(F)(F)F)c2)[nH]c2c(C#N)cnn2c1=O [Example 259],43
5,CC(C)c1c(-c2ccc3c(c2)CC(C)(C)O3)[nH]c2c(C#N)cnn2c1=O [Example 260],36
6,COc1cc(OC)cc(-c2[nH]c3c(C#N)cnn3c(=O)c2C(C)C)c1 [Example 261],31
7,CC(C)c1c(-c2ccc(-c3ccccc3)cc2)[nH]c2c(C#N)cnn2c1=O [Example 263],28
8,CC(C)c1c(-c2cc(C(F)(F)F)cc(C(F)(F)F)c2)[nH]c2c(C#N)cnn2c1=O [Example 265],40
9,COc1cc(F)cc(-c2[nH]c3c(C#N)cnn3c(=O)c2C(C)C)c1 [Example 266],29
10,CC(C)c1c(-c2ccc(C(C)(C)O)cc2)[nH]c2c(C#N)cnn2c1=O [Example 274],73
11,CC(C)c1c(-c2ccnc(C(F)(F)F)c2)[nH]c2c(C#N)cnn2c1=O [Example 275],34
12,CC(C)c1c(-c2ccc(Oc3ccccc3)nc2)[nH]c2c(C#N)cnn2c1=O [Example 276],35
13,Cc1nc(-c2ccccc2)sc1-c1[nH]c2c(C#N)cnn2c(=O)c1C(C)C [Example 278],76
14,CCNC(=O)c1cccc(-c2[nH]c3c(C#N)cnn3c(=O)c2C(C)C)c1 [Example 281],32
15,CC(C)c1c(-c2ccc(-c3ccccc3)nc2)[nH]c2c(C#N)cnn2c1=O [Example 283],37
16,COCC(C)n1cc(-c2[nH]c3c(C#N)cnn3c(=O)c2C(C)C)cn1 (stereo not shown) [Example 286],30
17,CC(=O)N1CCC=C(c2[nH]c3c(C#N)cnn3c(=O)c2C(C)C)C1 [Example 289],35
18,CCC(=O)N1CCC=C(c2[nH]c3c(C#N)cnn3c(=O)c2C(C)C)C1 [Example 290],39
19,CCC(=O)N1CC=C(c2[nH]c3c(C#N)cnn3c(=O)c2C(C)C)C1 [Example 291],55
20,CC(C)c1c(C2=CCCNC2)[nH]c2c(C#N)cnn2c1=O [Example 294],62
21,CC(C)c1c(C2=CCCN(C)C2)[nH]c2c(C#N)cnn2c1=O [Example 295],39
22,C=CC(=O)N1CCC=C(c2[nH]c3c(C#N)cnn3c(=O)c2C(C)C)C1 [Example 296],47
23,C=CC(=O)N1CC=C(c2[nH]c3c(C#N)cnn3c(=O)c2C(C)C)C1 [Example 297],28

row,SMILES,IC50 [nM]
1,CC(C)c1c(-c2ccc(C(F)(F)F)c(C(F)(F)F)c2)[nH]c2c(C#N)cnn2c1=O [Example 301],170
2,Cc1cc(-c2[nH]c3c(C#N)cnn3c(=O)c2C(C)C)ccc1C(F)(F)F [Example 302],52
3,CC(C)c1c(-c2ccc(F)c(C(=O)NC3CCCCC3)c2)[nH]c2c(C#N)cnn2c1=O [Example 304],52
4,CC(C)c1c(-c2ccc(N3CCOCC3)cc2)[nH]c2c(C#N)cnn2c1=O [Example 305],47
5,CC(C)c1c(-c2ccc(N3CCN(C(=O)OC(C)(C)C)CC3)cc2)[nH]c2c(C#N)cnn2c1=O [Example 306],200
6,CC(C)c1c(-c2ccc(NS(C)(=O)=O)cc2)[nH]c2c(C#N)cnn2c1=O [Example 309],37
7,CC(C)c1c(-c2cccc(N3CCOCC3)c2)[nH]c2c(C#N)cnn2c1=O [Example 311],28
8,CC(C)c1c(-c2ccc(Oc3ccccc3)cc2)[nH]c2c(C#N)cnn2c1=O [Example 312],28
9,CCOc1cccc(-c2[nH]c3c(C#N)cnn3c(=O)c2C(C)C)c1 [Example 316],34
10,CC(C)c1c(-c2cccc(CO)c2)[nH]c2c(C#N)cnn2c1=O [Example 317],25
11,CC(C)c1c(-c2cccc(OCCc3ccccc3)c2)[nH]c2c(C#N)cnn2c1=O [Example 319],46
12,Cc1n[nH]cc1-c1[nH]c2c(C#N)cnn2c(=O)c1C(C)C [Example 323],31
13,CC(C)c1c(-c2ccc(OCc3ccccc3)cc2)[nH]c2c(C#N)cnn2c1=O [Example 324],26
14,CCS(=O)(=O)c1cccc(-c2[nH]c3c(C#N)cnn3c(=O)c2C(C)C)c1 [Example 327],48
15,CC(C)c1c(-c2cccc(OC(F)(F)F)c2)[nH]c2c(C#N)cnn2c1=O [Example 328],30
16,CC(C)c1c(-c2ccc(C3CC3)cc2)[nH]c2c(C#N)cnn2c1=O [Example 331],27
17,CC(C)c1c(-c2ccc(OCc3ccccc3)nc2)[nH]c2c(C#N)cnn2c1=O [Example 334],25
18,CC(C)c1c(C2=CCN(C(=O)OC(C)(C)C)C2)[nH]c2c(C#N)cnn2c1=O [Example 335],60
19,CC(C)c1c(-c2cnn(C(CO)c3ccccc3)c2)[nH]c2c(C#N)cnn2c1=O (stereo not shown) [Example 336],32
20,CC(C)c1c(-c2cnn(C(CC#N)c3ccccc3)c2)[nH]c2c(C#N)cnn2c1=O (stereo not shown) [Example 337],25
21,CC(C)c1c(-c2ccc(C3CC3)nc2)[nH]c2c(C#N)cnn2c1=O [Example 338],34
22,COc1cc(-c2[nH]c3c(C#N)cnn3c(=O)c2C(C)C)ccc1C#N [Example 339],33
23,COc1ccc(-c2[nH]c3c(C#N)cnn3c(=O)c2C(C)C)cc1C(F)(F)F [Example 340],31

# The next lines start with the values.
row,IC50 [nM],SMILES
1,13,CC(C)c1c(-c2cnn(C(C)c3cscn3)c2)[nH]c2c(C#N)cnn2c1=O (stereo not shown) [Example 253]
2,15,COC(=O)c1cc(-c2[nH]c3c(C#N)cnn3c(=O)c2C(C)C)ccc1Cl [Example 256]
3,21,CC(C)c1c(-c2ccc(F)c(F)c2)[nH]c2c(C#N)cnn2c1=O [Example 262]
4,21,CC(C)c1c(-c2cc(F)cc(Cl)c2)[nH]c2c(C#N)cnn2c1=O [Example 264]
5,9.8,CC(C)c1c(-c2cccc(C(N)=O)c2)[nH]c2c(C#N)cnn2c1=O [Example 267]
6,23,CC(C)c1c(-c2ccc(OCC3CC3)cc2)[nH]c2c(C#N)cnn2c1=O [Example 268]
7,19,CC(C)c1c(-c2cc(F)cc(NC(=O)OCc3ccccc3)c2)[nH]c2c(C#N)cnn2c1=O [Example 269]
8,13,CC(C)c1c(-c2cccc(-n3cccn3)c2)[nH]c2c(C#N)cnn2c1=O [Example 270]
9,24,CC(C)c1c(-c2cnn(C3CCCC3O)c2)[nH]c2c(C#N)cnn2c1=O (stereo not shown) [Example 271]
10,23,CNS(=O)(=O)c1cccc(-c2[nH]c3c(C#N)cnn3c(=O)c2C(C)C)c1 [Example 273]
11,24,CC(C)c1c(-c2cc(N)cc(C#N)c2)[nH]c2c(C#N)cnn2c1=O [Example 279]
12,15,CC(C)c1c(-c2cnn(C3CCOC3)c2)[nH]c2c(C#N)cnn2c1=O (stereo not shown) [Example 280]
13,8,CC(C)c1c(-c2cccc(CC(N)=O)c2)[nH]c2c(C#N)cnn2c1=O [Example 282]
14,23,CC(C)c1c(-c2cnn(C3CCCOC3)c2)[nH]c2c(C#N)cnn2c1=O (stereo not shown) [Example 285]
15,22,CCOCCn1cc(-c2[nH]c3c(C#N)cnn3c(=O)c2C(C)C)cn1 [Example 287]
16,12,CC(=O)N1CC=C(c2[nH]c3c(C#N)cnn3c(=O)c2C(C)C)C1 [Example 288]
17,19,CC(C)c1c(C2=CCNC2)[nH]c2c(C#N)cnn2c1=O [Example 293]
18,24,Cc1cc(-c2[nH]c3c(C#N)cnn3c(=O)c2C(C)C)cc(C)c1Cl [Example 298]
19,25,Cc1cc(-c2[nH]c3c(C#N)cnn3c(=O)c2C(C)C)ccc1C#N [Example 299]

row,IC50 [nM],SMILES
1,18,CC(C)c1c(-c2ccc3c(c2)CCC3=O)[nH]c2c(C#N)cnn2c1=O [Example 300]
2,15,CC(C)c1c(-c2cnn(Cc3cccc4ccsc34)c2)[nH]c2c(C#N)cnn2c1=O [Example 303]
3,25,Cc1cc(Cl)cc(-c2[nH]c3c(C#N)cnn3c(=O)c2C(C)C)c1 [Example 307]
4,17,CC(C)c1c(-c2cccc(S(C)(=O)=O)c2)[nH]c2c(C#N)cnn2c1=O [Example 308]
5,19,CC(C)c1c(-c2ccc(CN3CCOCC3)cc2)[nH]c2c(C#N)cnn2c1=O [Example 310]
6,18,C=CC(=O)NCCn1cc(-c2[nH]c3c(C#N)cnn3c(=O)c2C(C)C)cn1 [Example 313]
7,5.2,CC(C)c1c(-c2cnn(CCN)c2)[nH]c2c(C#N)cnn2c1=O [Example 314]
8,24,Cc1ccc(-c2[nH]c3c(C#N)cnn3c(=O)c2C(C)C)cc1C1CC1 [Example 315]
9,21,CC(C)c1c(-c2cnn(CCNC(=O)OC(C)(C)C)c2)[nH]c2c(C#N)cnn2c1=O [Example 318]
10,20,CC(C)c1c(C2=CCNCC2)[nH]c2c(C#N)cnn2c1=O [Example 320]
11,23,C=CS(=O)(=O)NCCn1cc(-c2[nH]c3c(C#N)cnn3c(=O)c2C(C)C)cn1 [Example 321]
12,10,CC(C)c1c(-c2ccc(Nc3ccccc3)cc2)[nH]c2c(C#N)cnn2c1=O [Example 322]
13,19,CC(C)c1c(-c2cc(F)cc(F)c2)[nH]c2c(C#N)cnn2c1=O [Example 325]
14,14,CC(C)c1c(-c2cc(F)cc(C(F)(F)F)c2)[nH]c2c(C#N)cnn2c1=O [Example 326]
15,11,CC(C)c1c(-c2cnn(Cc3cncs3)c2)[nH]c2c(C#N)cnn2c1=O [Example 329]
16,23,Cc1ccc(-c2[nH]c3c(C#N)cnn3c(=O)c2C(C)C)cc1 [Example 330]
17,20,CCS(=O)(=O)c1ccc(-c2[nH]c3c(C#N)cnn3c(=O)c2C(C)C)cc1 [Example 332]
18,12,C=Cc1cccc(Cn2cc(-c3[nH]c4c(C#N)cnn4c(=O)c3C(C)C)cn2)n1 [Example 333]

# Source: patent publication US10035801B2, “Pyrazolo compounds and uses thereof” (CONSTELLATION PHARMACEUTICALS, INC., priority 2013, dated 2018)
